5 compounds from patent US20230174584A1, “Antibiotic Compounds” (priority 2019, published 2023) can be followed below.

Common to all, as to assay type: cell-based, Staphylococcus aureus
One assay concerns VRS9. As to the kind of experiment: MIC assay, VISA and VRSA panel. As for the experimental part: (§1) The antibacterial activity of the compounds was tested against a panel of bacteria, including Gram-positive bacteria (S. aureus ATCC29213, S. aureus USA300, S. aureus LIM-2, NR-45881, S. aureus HIP13419, NR-46413, E. faecium E155, E. faecium E7314, E. faecium E980, E. faecalis E1246, E. faecalis E7406 and S. pneumonia 153). The antibacterial activity of the compounds was further tested against S. aureus NY-155, NR-46236, S. aureus HIP12864, NR-46074, S. aureus 880 (BR-VRSA), NR-49120, E. faecalis E1246, E. faecalis E7604, as well as some Gram-negative bacteria (Escherichia coli and Klebsiella pneumoniae). Minimum inhibitory concentrations (MICs) in μg/mL were performed according to the CLSI guidelines. From glycerol stocks, bacterial strains were cultured on blood agar plates and incubated at 37° C. for 18 h. A single colony was transferred to tryptic soy broth (TSB) with 0.002% polysorbate 80 (p80). For the Enterococcus, VISA and VRSA strains, the cultures were grown at 37° C. until the optical density of the suspension reached a level equivalent to the 0.5 McFarland standard. The bacterial suspensions were diluted in TSB with 0.002% p80 to reach a bacterial cell density of 10^6 CFU/mL. In case of the other (vancomycin-sensitive) S. aureus strains, the direct colony suspension method was used. For these strains, after transfer of the colonies to TSB with 0.002% p80, they were immediately diluted to 10^6 CFU/mL, instead of incubated prior to this dilution. In the case of S. pneumonia, direct colony suspension was used by immediately suspending multiple colonies from fresh blood agar plates in TSB+0.002% p80 to an OD600 of 0.5 and subsequent dilution to 10^6 CFU mL^−1 in TSB+0.002% p80+5% lysed horse blood. Antibiotic dilutions for this strains were also made in TSB+0.002% p80+5% lysed horse blood. Both agar and microplates containing S. pneumonia were incubated at 37° C. with 5% CO2 for 24 h with constant shaking (600 rpm). […] The cultures were grown to exponential phase (OD600=0.5) at 37° C. […] In polypropylene 96-well microtiter plates, test compounds were added in biological triplicates and serial diluted 2-fold by transfer and mixing from one well to the next to achieve a final volume of 50 μL per well. An equal volume of bacterial suspension (10^6 CFU mL^−1) was added to the wells. The plates were sealed with breathable membranes and incubated at 37° C. for 24 h with constant shaking (600 rpm). In polypropylene microtiter plates, 100 μL of the test compounds was added to the first row in biological triplicates, and 50 μL of media was added to the other wells. The compounds were subjected to serial dilution by transfer and mixing of 50 μL from one well to the next. Subsequently, 50 μL of bacterial suspension (10^6 CFU/mL) was added to the wells. The plates were sealed with breathable membranes and incubated at 37° C. for 24 h with constant shaking (600 rpm). Positive growth control consisted of wells with bacterial suspension and without antibiotic. Negative growth control consisted of solely media without bacterial suspension or antibiotic. The MICs were determined from the median of a minimum of triplicates.

Another assay concerns VRS5. The experiment in a line: MIC assay, VISA and VRSA panel. As for the experimental part: as §1
The subject of a further assay is VRS11a. As to the kind of experiment: MIC assay, VISA and VRSA panel. As for the experimental part:
as §1

A further assay deals with NRS51. The experiment in a line: MIC assay, VISA and VRSA panel. As for the experimental part: as §1
For the next assay, the system named is NRS17. As to the kind of experiment: MIC assay, VISA and VRSA panel. The method, then:
as §1

The subject of a further assay is VRS7. The experiment in a line: MIC assay, VISA and VRSA panel. As for the experimental part: as §1
The subject of a further assay is NRS18. As to the kind of experiment: MIC assay, VISA and VRSA panel. As for the experimental part: as §1
In the next assay the test system is NRS63SH. The experiment in a line: MIC assay, VISA and VRSA panel. As for the experimental part:
as §1

Another assay has as its system VRS8. As to the kind of experiment: MIC assay, VISA and VRSA panel. The method, then:
as §1

A further assay has as its system NRS52. The experiment in a line: MIC assay, VISA and VRSA panel. As for the experimental part:
as §1

Another assay relates to VRSA3b. The experiment in a line: MIC assay, VISA and VRSA panel. The method, then:
as §1

The test system of a further assay is VRS2. The experiment in a line: MIC assay, VISA and VRSA panel. The method, then:
as §1

The subject of the next assay is NRS19. The experiment in a line: MIC assay, VISA and VRSA panel. As for the experimental part: as §1
Another assay relates to VRS11b. As to the kind of experiment: MIC assay, VISA and VRSA panel. As for the experimental part: as §1
The next assay deals with VRS4. As to the kind of experiment: MIC assay, VISA and VRSA panel. The method, then: as §1
The next assay relates to S. aureus ATCC29213. The experiment in a line: UDP-MurNAc-pentapeptide accumulation assay. The settings on record: S. aureus ATCC29213, 5 μM, 1 h. The method, then: An overnight culture of bacterial suspension (S. aureus ATCC29213, E. faecium E155, E. faecium E7314 and E. faecium E980) was diluted 100-fold in TSB supplemented with 0.002% p80 and cultured at 37° C. until the optical density of the suspension reached a level equivalent to the 0.5 McFarland standard. Chloramphenicol was added at a final concentration of 130 μg/mL and the culture was incubated for an additional 15 min at 37° C. […] The cultures were incubated at 37° C. for 1 h, after which they were centrifuged to pellet the bacteria. The supernatant was removed and the pellets were resuspended in 1 mL MQ-H2O. The samples were boiled at 100° C. for 15 minutes and subsequently centrifuged at 12000 rpm for 30 minutes. The supernatant of the samples was lyophilized and redissolved in 250 μL buffer A (50 mM ammonium bicarbonate, 5 mM NEt3, pH 8.3). Samples were analyzed by analytical RP-HPLC using a 0-25% buffer B (MeOH) gradient over 25 minutes.
An UDP-MurNAc-pentapeptide accumulation assay was performed to elucidate part of the mechanism of action of the compounds. UDP-MurNAc-pentapeptide is the last soluble precursor of peptidoglycan cell wall biosynthesis. In this assay, live cells accumulate this last soluble precursor when treated with compounds that interfere with the membrane bound stages of peptidoglycan biosynthesis (Sass, V. et al. Human beta-defensin 3 inhibits cell wall biosynthesis in Staphylococci. Infect. Immun. 78, 2793-2800 (2010)).

The structures appear in SMILES notation. In brackets after ≈: the same amount, converted by molar mass.

On to `CCCCCCCNC(N)=Nc1ccc(CN[C@@]2(C)C[C@H](O[C@H]3[C@H](Oc4c5cc6cc4Oc4ccc(cc4Cl)[C@@H](O)[C@@H](NC(=O)[C@@H](CC(C)C)NC)C(=O)N[C@@H](CC(N)=O)C(=O)N[C@H]6C(=O)N[C@H]4C(=O)N[C@H](C(=O)N[C@H](C(=O)O)c6cc(O)cc(O)c6-c6cc4ccc6O)[C@H](O)c4ccc(c(Cl)c4)O5)O[C@H](CO)[C@@H](O)[C@@H]3O)O[C@@H](C)[C@H]2O)cc1` [Compound 5], for which the MIC against VRS9 (strain VRS9) came out at 16 µg/mL (≈ 9.44 µM); against VRS5 (strain VRS5), 4 µg/mL (≈ 2.36 µM); in the assay with VRS11a (strain VRS11a), 16 µg/mL (≈ 9.44 µM); against NRS51 (strain NRS51), 0.031 µg/mL (≈ 0.0183 µM); against NRS17 (strain NRS17), 0.25 µg/mL (≈ 0.148 µM); in the assay on VRS7 (strain VRS7), 4 µg/mL (≈ 2.36 µM). In addition, the MIC against NRS18 (strain NRS18) was 0.125 µg/mL (≈ 0.0738 µM); against NRS63SH (strain NRS63SH) it was 8 µg/mL (≈ 4.72 µM); in the assay on VRS8 (strain VRS8), 16 µg/mL (≈ 9.44 µM); against NRS52 (strain NRS52), 0.031 µg/mL (≈ 0.0183 µM); against VRSA3b (strain VRSA3b), 1 µg/mL (≈ 0.59 µM); with VRS2 (strain VRS2), 0.25 µg/mL (≈ 0.148 µM). The MIC with NRS19 (strain NRS19) came to 0.063 µg/mL (≈ 0.0372 µM); with VRS11b (strain VRS11b), 16 µg/mL (≈ 9.44 µM); against VRS4 (strain VRS4), 8 µg/mL (≈ 4.72 µM). Further, the “accumulation of UDP-MurNAc-pentapeptide” value in the assay on S. aureus ATCC29213 was “accumulation of UDP-MurNAc-pentapeptide”.

Consider `CCCCCCCCNC(N)=Nc1ccc(CN[C@@]2(C)C[C@H](O[C@H]3[C@H](Oc4c5cc6cc4Oc4ccc(cc4Cl)[C@@H](O)[C@@H](NC(=O)[C@@H](CC(C)C)NC)C(=O)N[C@@H](CC(N)=O)C(=O)N[C@H]6C(=O)N[C@H]4C(=O)N[C@H](C(=O)N[C@H](C(=O)O)c6cc(O)cc(O)c6-c6cc4ccc6O)[C@H](O)c4ccc(c(Cl)c4)O5)O[C@H](CO)[C@@H](O)[C@@H]3O)O[C@@H](C)[C@H]2O)cc1` [Compound 6], for which, in the assay with S. aureus ATCC29213, the “accumulation of UDP-MurNAc-pentapeptide” value is “accumulation of UDP-MurNAc-pentapeptide”.

For the compound `CCCCCCCCCNC(N)=Nc1ccc(CN[C@@]2(C)C[C@H](O[C@H]3[C@H](Oc4c5cc6cc4Oc4ccc(cc4Cl)[C@@H](O)[C@@H](NC(=O)[C@@H](CC(C)C)NC)C(=O)N[C@@H](CC(N)=O)C(=O)N[C@H]6C(=O)N[C@H]4C(=O)N[C@H](C(=O)N[C@H](C(=O)O)c6cc(O)cc(O)c6-c6cc4ccc6O)[C@H](O)c4ccc(c(Cl)c4)O5)O[C@H](CO)[C@@H](O)[C@@H]3O)O[C@@H](C)[C@H]2O)cc1` [Compound 7], the “accumulation of UDP-MurNAc-pentapeptide” value in the assay with S. aureus ATCC29213 is “accumulation of UDP-MurNAc-pentapeptide”.

For `CN[C@H](CC(C)C)C(=O)N[C@H]1C(=O)N[C@@H](CC(N)=O)C(=O)N[C@H]2C(=O)N[C@H]3C(=O)N[C@H](C(=O)N[C@H](C(=O)O)c4cc(O)cc(O)c4-c4cc3ccc4O)[C@H](O)c3ccc(c(Cl)c3)Oc3cc2cc(c3O[C@@H]2O[C@H](CO)[C@@H](O)[C@H](O)[C@H]2O[C@H]2C[C@](C)(NCc3ccc(N=C(N)NC/C=C(\C)CCC=C(C)C)cc3)[C@H](O)[C@H](C)O2)Oc2ccc(cc2Cl)[C@H]1O` [Compound 14], the “accumulation of UDP-MurNAc-pentapeptide” value in the assay with S. aureus ATCC29213 was “accumulation of UDP-MurNAc-pentapeptide”.

Regarding `CN[C@H](CC(C)C)C(=O)N[C@H]1C(=O)N[C@@H](CC(N)=O)C(=O)N[C@H]2C(=O)N[C@H]3C(=O)N[C@H](C(=O)N[C@H](C(=O)O)c4cc(O)cc(O)c4-c4cc3ccc4O)[C@H](O)c3ccc(c(Cl)c3)Oc3cc2cc(c3O[C@@H]2O[C@H](CO)[C@@H](O)[C@H](O)[C@H]2O[C@H]2C[C@](C)(N)[C@H](O)[C@H](C)O2)Oc2ccc(cc2Cl)[C@H]1O` [Vancomycin, reference compound], the MIC is greater than 128 µg/mL with VRS9 (Staphylococcus aureus); greater than 128 µg/mL in the assay on VRS5 (Staphylococcus aureus); greater than 128 µg/mL in the assay on VRS11a (Staphylococcus aureus); 4 µg/mL (≈ 2.76 µM) against NRS51 (Staphylococcus aureus, NRS51); 8 µg/mL (≈ 5.52 µM) with NRS17 (Staphylococcus aureus, NRS17); greater than 128 µg/mL in the assay with VRS7 (Staphylococcus aureus). The minimum inhibitory concentration (MIC) in the assay with NRS18 (Staphylococcus aureus, NRS18) is 8 µg/mL (≈ 5.52 µM); against NRS63SH (Staphylococcus aureus), greater than 128 µg/mL; against VRS8 (Staphylococcus aureus), greater than 128 µg/mL; with NRS52 (Staphylococcus aureus, NRS52) it was 4 µg/mL (≈ 2.76 µM); against VRSA3b (Staphylococcus aureus), greater than 128 µg/mL; in the assay on VRS2 (Staphylococcus aureus) it was 32 µg/mL (≈ 22.1 µM). Further, the minimum inhibitory concentration (MIC) in the assay on NRS19 (Staphylococcus aureus, NRS19) was 4 µg/mL (≈ 2.76 µM); against VRS11b (Staphylococcus aureus), greater than 128 µg/mL; against VRS4 (Staphylococcus aureus), greater than 128 µg/mL.
